# Tests used:
# [1] = test system: A549 (lung), DU145 (prostate), SKOV3 (ovary), and MDA MB468 (breast) tumor-bearing SCID mice; test: in vivo biodistribution studies, summary over tumor models; details: injected intravenously
# Experimental: (§1) For the in vitro amino acid uptake studies, all cells can be grown to monolayer confluency in T-175 culture flasks [Corning, Corning, N.Y.] (approx. 1×10^8 cells/flask) in Dulbecco's Modified Eagle's Medium (DMEM) [Sigma, St. Louis, Mo.] in a humidified incubator (37° C., 5% CO2/95% air). Media are supplemented with 10% fetal calf serum [Hyclone, Logan, Utah], and antibiotics (10,000 U/ml penicillin and 10 mg/ml streptomycin) (Sigma, St. Louis, Mo.). For tissue culture passage, monolayer cells are detached by gentle trypsinization, resuspended in complete media, and split 1:10 into new T-flasks. Cultures are passaged weekly, and fed fresh media every 2 to 3 days. To initiate tumor growth in SCID mice, 1×10^6 cells are injected s.c. bilaterally into the flanks (inguinal region) of the recipient animals using a 1 ml syringe with a 27 gauge needle. Ex vivo experiments can be performed with animals containing tumors weighing between 500 mg and 1 g, as estimated by caliper measurement (tumor weight=(π/6)*abc, where a, b and c are the tumor length, width and height, respectively). The compounds of the invention are further evaluated for their tumor specificity and selectivity in tumor-bearing animal models. One can evaluate and compare the transport, accumulation and tissue distribution of each compound in these in vivo animal studies. Tissue distribution of the compounds is measured in SCID mice (average weight, 20-25 g) bearing human tumors as follows. The candidate radioligands (20 uCi in 0.4 ml 0.9% NaCl) are injected into the tail vein of tumor-bearing mice. The animals are sacrificed (cervical dislocation) at 5, 30, 60 and 120 minutes post-injection. Tissues (blood, heart, liver, lungs, kidneys, bone, thyroid, muscle, brain and tumor) are excised, rinsed in saline, and blotted dry. The tissues are weighed, placed into 12×75 mm glass vials, the radioactivity determined with a gamma counter, and the percent dose/gram calculated. Total activities of blood and muscle are calculated by assuming that they account for 7% and 40% of the total body mass, respectively. As exemplified above, the amino acid compounds of the invention have advantageous physiological characteristics (i.e., tumor binding specificity and selectivity, in vivo stability etc).
# [2] = test system: DU145 Prostate Tumor Cells Implanted SC in SCID Mice; test: tissue distribution, DU145 tumor-bearing SCID mice; type: in vivo
# Experimental: as §1, with “The animals are sacrificed (cervical dislocation) at 5, 30, 60 and 120 minutes post-injection.” left out, “respectively.” for “respectively. As exemplified above, the amino acid compounds of the invention have advantageous physiological characteristics (i.e., tumor binding specificity and selectivity, in vivo stability etc).”
# [3] = 120 min p.i., range over tumor models
smiles,measurement,setting,value
"NC1(C(=O)O)CCC1[18F] [Anti-R,S 2-[^18F]FACBC, (R,S) anti-1-amino-2-[^18F]fluorocyclobutyl-1-carboxylic acid]",tumor uptake,[1]; [3],1.4-3.4 % dose/g
same,tumor-to brain ratio,[1]; [3],15-30
same,tumor-to kidney ratio,[1]; [3],1.5-2.7
same,tumor-to liver ratio,[1]; [3],2.4-4
same,tumor-to muscle ratio,[1]; [3],2-4
same,accumulation of radioactivity in tumors,[1],rapid and prolonged accumulation of radioactivity in tumors
same,% Dose/g blood,[2]; 15 Minutes,2.79 % Dose/g
same,% Dose/g bone,[2]; 15 Minutes,1.05 % Dose/g
same,% Dose/g brain,[2]; 15 Minutes,0.16 % Dose/g
same,% Dose/g heart,[2]; 15 Minutes,2.07 % Dose/g
same,% Dose/g kidney,[2]; 15 Minutes,6.81 % Dose/g
same,% Dose/g liver,[2]; 15 Minutes,2.32 % Dose/g
same,% Dose/g lung,[2]; 15 Minutes,3.35 % Dose/g
same,% Dose/g muscle,[2]; 15 Minutes,0.83 % Dose/g
same,% Dose/g pancreas,[2]; 15 Minutes,29.02 % Dose/g
same,% Dose/g spleen,[2]; 15 Minutes,4.37 % Dose/g
same,% Dose/g tumor,[2]; 15 Minutes,2.94 % Dose/g
same,% Dose/g blood,[2]; 30 Minutes,1.85 % Dose/g
same,% Dose/g bone,[2]; 30 Minutes,1.62 % Dose/g
same,% Dose/g brain,[2]; 30 Minutes,0.16 % Dose/g
same,% Dose/g heart,[2]; 30 Minutes,1.82 % Dose/g
same,% Dose/g kidney,[2]; 30 Minutes,4.47 % Dose/g
same,% Dose/g liver,[2]; 30 Minutes,2.08 % Dose/g
same,% Dose/g lung,[2]; 30 Minutes,2.31 % Dose/g
same,% Dose/g muscle,[2]; 30 Minutes,0.99 % Dose/g
same,% Dose/g pancreas,[2]; 30 Minutes,29.29 % Dose/g
same,% Dose/g spleen,[2]; 30 Minutes,4.74 % Dose/g
same,% Dose/g tumor,[2]; 30 Minutes,3.54 % Dose/g
same,% Dose/g blood,[2]; 60 Minutes,0.80 % Dose/g
same,% Dose/g bone,[2]; 60 Minutes,2.22 % Dose/g
same,% Dose/g brain,[2]; 60 Minutes,0.17 % Dose/g
same,% Dose/g heart,[2]; 60 Minutes,1.32 % Dose/g
same,% Dose/g kidney,[2]; 60 Minutes,1.82 % Dose/g
same,% Dose/g liver,[2]; 60 Minutes,1.22 % Dose/g
same,% Dose/g lung,[2]; 60 Minutes,1.18 % Dose/g
same,% Dose/g muscle,[2]; 60 Minutes,1.15 % Dose/g
same,% Dose/g pancreas,[2]; 60 Minutes,15.00 % Dose/g
same,% Dose/g spleen,[2]; 60 Minutes,2.84 % Dose/g
same,% Dose/g tumor,[2]; 60 Minutes,2.56 % Dose/g
same,% Dose/g blood,[2]; 120 Minutes,0.38 % Dose/g
same,% Dose/g bone,[2]; 120 Minutes,0.65 % Dose/g
same,% Dose/g brain,[2]; 120 Minutes,0.12 % Dose/g
same,% Dose/g heart,[2]; 120 Minutes,0.82 % Dose/g
same,% Dose/g kidney,[2]; 120 Minutes,0.78 % Dose/g
same,% Dose/g liver,[2]; 120 Minutes,0.42 % Dose/g
same,% Dose/g lung,[2]; 120 Minutes,0.45 % Dose/g
same,% Dose/g muscle,[2]; 120 Minutes,0.71 % Dose/g
same,% Dose/g pancreas,[2]; 120 Minutes,5.92 % Dose/g
same,% Dose/g spleen,[2]; 120 Minutes,0.87 % Dose/g
same,% Dose/g tumor,[2]; 120 Minutes,1.84 % Dose/g

# Source: patent US8834841B2, “Imaging agents” (priority 2005, dated 2014)
